Target: T1, AP1G1 (Homo sapiens, UniProt O43747)
T1 construct: endogenous full-length AP1G1 in BEAS-2B cells or lysate; untagged
T1 sequence (O43747 1-822): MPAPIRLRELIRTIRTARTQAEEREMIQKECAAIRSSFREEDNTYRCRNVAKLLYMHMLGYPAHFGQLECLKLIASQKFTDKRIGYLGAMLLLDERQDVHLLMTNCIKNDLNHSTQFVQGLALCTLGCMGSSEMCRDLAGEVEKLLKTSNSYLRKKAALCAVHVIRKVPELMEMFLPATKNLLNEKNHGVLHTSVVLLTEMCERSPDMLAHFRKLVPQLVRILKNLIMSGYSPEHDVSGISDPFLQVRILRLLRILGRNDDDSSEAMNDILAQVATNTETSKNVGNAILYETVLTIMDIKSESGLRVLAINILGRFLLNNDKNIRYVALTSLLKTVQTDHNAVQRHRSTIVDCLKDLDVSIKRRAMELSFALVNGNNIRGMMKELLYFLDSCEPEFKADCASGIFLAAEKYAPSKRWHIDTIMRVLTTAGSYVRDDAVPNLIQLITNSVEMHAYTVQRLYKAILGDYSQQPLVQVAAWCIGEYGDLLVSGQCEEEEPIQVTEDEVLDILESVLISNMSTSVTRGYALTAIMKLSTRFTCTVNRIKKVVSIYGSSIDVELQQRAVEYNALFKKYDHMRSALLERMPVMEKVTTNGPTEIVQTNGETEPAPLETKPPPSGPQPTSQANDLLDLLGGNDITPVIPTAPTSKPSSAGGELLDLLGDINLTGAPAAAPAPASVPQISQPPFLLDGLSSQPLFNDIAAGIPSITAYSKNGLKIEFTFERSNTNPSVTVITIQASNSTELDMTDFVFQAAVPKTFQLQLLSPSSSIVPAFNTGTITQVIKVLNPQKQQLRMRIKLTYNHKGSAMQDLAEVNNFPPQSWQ
Test: CETSA-Western blot
Type: cell-based
Conditions: 40-65 ℃; covalent; Cys128; also competes with ITAP in BEAS-2B lysate

## C=C(CC(=O)O)C(=O)O [itaconate]
  CETSA-Western blot: Itaconate treatment significantly altered the thermal stability of AP1G1

From paper PMC12602806, “Itaconate reduces viral endocytosis by targeting Cys128 of the adaptor-related protein complex 1 gamma 1 subunit in the host, providing a novel target for antiviral drug development” (Molecular Biomedicine, 2025)
